Measured values published in PubChem BioAssay (NCI).
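Each compound was tested at five concentrations against cells in 96-well plates for 48 hours. GI50 = concentration required for 50% inhibition of growth. TGI: concentration producing complete growth inhibition.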

Tests used:
Assay in all cases: growth of human tumour cells (NCI), 48 h
786-0 renal = system: 786-0 renal
A549 NSCLC = system: A549 NSCLC
ACHN renal = system: ACHN renal
BT-549 breast = system: BT-549 breast
CAKI-1 renal = system: CAKI-1 renal
CCRF-CEM leukemia = system: CCRF-CEM leukemia
COLO 205 colon = system: COLO 205 colon
DU-145 prostate = system: DU-145 prostate
EKVX NSCLC = system: EKVX NSCLC
HCC-2998 colon = system: HCC-2998 colon
HCT-116 colon = system: HCT-116 colon
HCT-15 colon = system: HCT-15 colon
HOP-62 NSCLC = system: HOP-62 NSCLC
HOP-92 NSCLC = system: HOP-92 NSCLC
HS 578T breast = system: HS 578T breast
HT29 colon = system: HT29 colon
IGROV1 ovarian = system: IGROV1 ovarian
K-562 leukemia = system: K-562 leukemia
KM12 colon = system: KM12 colon
LOX IMVI melanoma = system: LOX IMVI melanoma
M14 melanoma = system: M14 melanoma
MCF7 breast = system: MCF7 breast
MDA-MB-231 breast = system: MDA-MB-231 breast
MDA-MB-435 = system: MDA-MB-435
MOLT-4 leukemia = system: MOLT-4 leukemia
NCI-H226 lung = system: NCI-H226 lung
NCI-H23 lung = system: NCI-H23 lung
NCI-H460 lung = system: NCI-H460 lung
NCI-H522 lung = system: NCI-H522 lung
NCI/ADR-RES ovarian = system: NCI/ADR-RES ovarian
OVCAR-3 ovarian = system: OVCAR-3 ovarian
OVCAR-4 ovarian = system: OVCAR-4 ovarian
OVCAR-5 ovarian = system: OVCAR-5 ovarian
OVCAR-8 ovarian = system: OVCAR-8 ovarian
PC-3 prostate = system: PC-3 prostate
RPMI-8226 leukemia = system: RPMI-8226 leukemia
RXF 393 renal = system: RXF 393 renal
SF-268 CNS = system: SF-268 CNS
SF-295 CNS = system: SF-295 CNS
SF-539 CNS = system: SF-539 CNS
SK-MEL-2 melanoma = system: SK-MEL-2 melanoma
SK-MEL-28 melanoma = system: SK-MEL-28 melanoma
SK-MEL-5 melanoma = system: SK-MEL-5 melanoma
SK-OV-3 ovarian = system: SK-OV-3 ovarian
SN12C renal = system: SN12C renal
SNB-19 CNS = system: SNB-19 CNS
SNB-75 CNS = system: SNB-75 CNS
SW-620 colon = system: SW-620 colon
T-47D breast = system: T-47D breast
U251 CNS = system: U251 CNS
UACC-257 melanoma = system: UACC-257 melanoma
UACC-62 melanoma = system: UACC-62 melanoma
UO-31 renal = system: UO-31 renal

Q: With `O=C1CS/C(=N/S(=O)(=O)c2ccc(N3N=C4c5ccccc5CC4C3c3cccs3)cc2)N(c2ccccc2)C1` (stereo unspecified) as the compound, how does the GI50 (786-0 renal) read?
A: The GI50 was 22.1 µM.

Q: What about the TGI (786-0 renal) of the same compound?
A: Its TGI is > 100 µM.

Q: And the GI50 (A549 NSCLC)?
A: Its GI50 is 47.2 µM.

Q: What about the TGI (A549 NSCLC) of the same compound?
A: Its TGI is > 100 µM.

Q: What about the GI50 (ACHN renal) of the same compound?
A: The GI50 was 22.1 µM.

Q: And the TGI (ACHN renal)?
A: Its TGI is 78.7 µM.

Q: And the GI50 (BT-549 breast)?
A: The GI50 was 21.4 µM.

Q: And the TGI (BT-549 breast)?
A: The TGI was > 100 µM.

Q: What about the GI50 (CAKI-1 renal) of the same compound?
A: Its GI50 is 74.5 µM.

Q: And the TGI (CAKI-1 renal)?
A: The TGI was > 100 µM.

Q: And the GI50 (CCRF-CEM leukemia)?
A: Its GI50 is 36.8 µM.

Q: And the TGI (CCRF-CEM leukemia)?
A: Its TGI is > 100 µM.

Q: What about the GI50 (COLO 205 colon) of the same compound?
A: The GI50 was 57.2 µM.

Q: What about the TGI (COLO 205 colon) of the same compound?
A: Its TGI is > 100 µM.

Q: What about the GI50 (DU-145 prostate) of the same compound?
A: The GI50 was 30.7 µM.

Q: What about the TGI (DU-145 prostate) of the same compound?
A: The TGI was > 100 µM.

Q: And the GI50 (EKVX NSCLC)?
A: The GI50 was 39.5 µM.

Q: And the TGI (EKVX NSCLC)?
A: The TGI was > 100 µM.

Q: What about the GI50 (HCC-2998 colon) of the same compound?
A: The GI50 was 20.5 µM.

Q: And the TGI (HCC-2998 colon)?
A: Its TGI is 48.5 µM.

Q: What about the GI50 (HCT-116 colon) of the same compound?
A: The GI50 was 12.5 µM.

Q: What about the TGI (HCT-116 colon) of the same compound?
A: The TGI was 27.4 µM.

Q: And the GI50 (HCT-15 colon)?
A: Its GI50 is 35.5 µM.

Q: And the TGI (HCT-15 colon)?
A: Its TGI is > 100 µM.

Q: What about the GI50 (HOP-62 NSCLC) of the same compound?
A: The GI50 was 17.4 µM.

Q: What about the TGI (HOP-62 NSCLC) of the same compound?
A: Its TGI is 49.2 µM.

Q: And the GI50 (HOP-92 NSCLC)?
A: The GI50 was 79.9 µM.

Q: What about the TGI (HOP-92 NSCLC) of the same compound?
A: Its TGI is > 100 µM.

Q: What about the GI50 (HS 578T breast) of the same compound?
A: The GI50 was 20.5 µM.

Q: And the TGI (HS 578T breast)?
A: Its TGI is 83.7 µM.

Q: What about the GI50 (HT29 colon) of the same compound?
A: The GI50 was 61 µM.

Q: And the TGI (HT29 colon)?
A: The TGI was > 100 µM.

Q: And the GI50 (IGROV1 ovarian)?
A: Its GI50 is 19.5 µM.

Q: And the TGI (IGROV1 ovarian)?
A: The TGI was > 100 µM.

Q: And the GI50 (K-562 leukemia)?
A: Its GI50 is 10.3 µM.

Q: What about the TGI (K-562 leukemia) of the same compound?
A: Its TGI is 93.5 µM.

Q: What about the GI50 (KM12 colon) of the same compound?
A: The GI50 was 28.4 µM.

Q: And the TGI (KM12 colon)?
A: The TGI was 88.4 µM.

Q: What about the GI50 (LOX IMVI melanoma) of the same compound?
A: The GI50 was 21.2 µM.

Q: What about the TGI (LOX IMVI melanoma) of the same compound?
A: The TGI was 51 µM.

Q: And the GI50 (M14 melanoma)?
A: The GI50 was 39.1 µM.

Q: What about the TGI (M14 melanoma) of the same compound?
A: The TGI was > 100 µM.

Q: And the GI50 (MCF7 breast)?
A: Its GI50 is 88.8 µM.

Q: What about the TGI (MCF7 breast) of the same compound?
A: The TGI was > 100 µM.

Q: What about the GI50 (MDA-MB-231 breast) of the same compound?
A: The GI50 was 21.4 µM.

Q: And the TGI (MDA-MB-231 breast)?
A: The TGI was 84.8 µM.

Q: And the GI50 (MDA-MB-435)?
A: The GI50 was 29.5 µM.

Q: And the TGI (MDA-MB-435)?
A: The TGI was > 100 µM.

Q: What about the GI50 (MOLT-4 leukemia) of the same compound?
A: Its GI50 is 0.0146 µM.

Q: What about the TGI (MOLT-4 leukemia) of the same compound?
A: The TGI was 34.8 µM.

Q: And the GI50 (NCI-H226 lung)?
A: The GI50 was 22.3 µM.

Q: And the TGI (NCI-H226 lung)?
A: Its TGI is 93.8 µM.

Q: And the GI50 (NCI-H23 lung)?
A: The GI50 was 24.2 µM.

Q: What about the TGI (NCI-H23 lung) of the same compound?
A: The TGI was 63.5 µM.

Q: What about the GI50 (NCI-H460 lung) of the same compound?
A: Its GI50 is > 100 µM.

Q: What about the TGI (NCI-H460 lung) of the same compound?
A: The TGI was > 100 µM.

Q: What about the GI50 (NCI-H522 lung) of the same compound?
A: The GI50 was 23.8 µM.

Q: What about the TGI (NCI-H522 lung) of the same compound?
A: The TGI was > 100 µM.

Q: What about the GI50 (NCI/ADR-RES ovarian) of the same compound?
A: The GI50 was > 100 µM.

Q: And the TGI (NCI/ADR-RES ovarian)?
A: The TGI was > 100 µM.

Q: And the GI50 (OVCAR-3 ovarian)?
A: The GI50 was > 100 µM.

Q: And the TGI (OVCAR-3 ovarian)?
A: Its TGI is > 100 µM.

Q: What about the GI50 (OVCAR-4 ovarian) of the same compound?
A: Its GI50 is > 100 µM.

Q: And the TGI (OVCAR-4 ovarian)?
A: Its TGI is > 100 µM.

Q: What about the GI50 (OVCAR-5 ovarian) of the same compound?
A: Its GI50 is 34.6 µM.

Q: What about the TGI (OVCAR-5 ovarian) of the same compound?
A: The TGI was > 100 µM.

Q: What about the GI50 (OVCAR-8 ovarian) of the same compound?
A: Its GI50 is 25.4 µM.

Q: And the TGI (OVCAR-8 ovarian)?
A: Its TGI is > 100 µM.

Q: And the GI50 (PC-3 prostate)?
A: Its GI50 is 45 µM.

Q: What about the TGI (PC-3 prostate) of the same compound?
A: The TGI was > 100 µM.

Q: And the GI50 (RPMI-8226 leukemia)?
A: Its GI50 is 31 µM.

Q: What about the TGI (RPMI-8226 leukemia) of the same compound?
A: The TGI was > 100 µM.

Q: What about the GI50 (RXF 393 renal) of the same compound?
A: Its GI50 is 41 µM.

Q: What about the TGI (RXF 393 renal) of the same compound?
A: Its TGI is > 100 µM.

Q: And the GI50 (SF-268 CNS)?
A: Its GI50 is > 100 µM.

Q: What about the TGI (SF-268 CNS) of the same compound?
A: The TGI was > 100 µM.

Q: And the GI50 (SF-295 CNS)?
A: The GI50 was 32.7 µM.

Q: And the TGI (SF-295 CNS)?
A: The TGI was > 100 µM.

Q: And the GI50 (SF-539 CNS)?
A: Its GI50 is 27.8 µM.

Q: And the TGI (SF-539 CNS)?
A: The TGI was 99.2 µM.

Q: And the GI50 (SK-MEL-2 melanoma)?
A: Its GI50 is 60.2 µM.

Q: What about the TGI (SK-MEL-2 melanoma) of the same compound?
A: The TGI was > 100 µM.

Q: What about the GI50 (SK-MEL-28 melanoma) of the same compound?
A: The GI50 was > 100 µM.

Q: And the TGI (SK-MEL-28 melanoma)?
A: Its TGI is > 100 µM.

Q: And the GI50 (SK-MEL-5 melanoma)?
A: The GI50 was 38.2 µM.

Q: What about the TGI (SK-MEL-5 melanoma) of the same compound?
A: Its TGI is > 100 µM.

Q: And the GI50 (SK-OV-3 ovarian)?
A: The GI50 was > 100 µM.

Q: What about the TGI (SK-OV-3 ovarian) of the same compound?
A: Its TGI is > 100 µM.

Q: What about the GI50 (SN12C renal) of the same compound?
A: The GI50 was 34.3 µM.

Q: And the TGI (SN12C renal)?
A: The TGI was > 100 µM.

Q: And the GI50 (SNB-19 CNS)?
A: The GI50 was 55.7 µM.

Q: And the TGI (SNB-19 CNS)?
A: The TGI was > 100 µM.

Q: And the GI50 (SNB-75 CNS)?
A: The GI50 was > 100 µM.

Q: And the TGI (SNB-75 CNS)?
A: The TGI was > 100 µM.

Q: What about the GI50 (SW-620 colon) of the same compound?
A: The GI50 was 45.2 µM.

Q: And the TGI (SW-620 colon)?
A: Its TGI is > 100 µM.

Q: And the GI50 (T-47D breast)?
A: Its GI50 is 69.2 µM.

Q: And the TGI (T-47D breast)?
A: Its TGI is > 100 µM.

Q: And the GI50 (U251 CNS)?
A: The GI50 was 28 µM.

Q: And the TGI (U251 CNS)?
A: Its TGI is > 100 µM.

Q: What about the GI50 (UACC-257 melanoma) of the same compound?
A: The GI50 was 42.3 µM.

Q: And the TGI (UACC-257 melanoma)?
A: Its TGI is > 100 µM.

Q: And the GI50 (UACC-62 melanoma)?
A: The GI50 was 16.1 µM.

Q: And the TGI (UACC-62 melanoma)?
A: The TGI was 38.9 µM.

Q: What about the GI50 (UO-31 renal) of the same compound?
A: The GI50 was 69.3 µM.

Q: And the TGI (UO-31 renal)?
A: Its TGI is > 100 µM.
